# Source: patent publication US20210070735A1, “RIP1 INHIBITORY COMPOUNDS AND METHODS FOR MAKING AND USING THE SAME” (Rigel Pharmaceuticals, Inc., priority 2019, published 2021)
# Tests used:
# RIPK1 = target: T1, RIPK1 (Homo sapiens, UniProt Q13546); experiment: RIPK1 ADP-Glo biochemical kinase assay; settings: 30 min at 30° C.
# T1 sequence (Q13546 1-671): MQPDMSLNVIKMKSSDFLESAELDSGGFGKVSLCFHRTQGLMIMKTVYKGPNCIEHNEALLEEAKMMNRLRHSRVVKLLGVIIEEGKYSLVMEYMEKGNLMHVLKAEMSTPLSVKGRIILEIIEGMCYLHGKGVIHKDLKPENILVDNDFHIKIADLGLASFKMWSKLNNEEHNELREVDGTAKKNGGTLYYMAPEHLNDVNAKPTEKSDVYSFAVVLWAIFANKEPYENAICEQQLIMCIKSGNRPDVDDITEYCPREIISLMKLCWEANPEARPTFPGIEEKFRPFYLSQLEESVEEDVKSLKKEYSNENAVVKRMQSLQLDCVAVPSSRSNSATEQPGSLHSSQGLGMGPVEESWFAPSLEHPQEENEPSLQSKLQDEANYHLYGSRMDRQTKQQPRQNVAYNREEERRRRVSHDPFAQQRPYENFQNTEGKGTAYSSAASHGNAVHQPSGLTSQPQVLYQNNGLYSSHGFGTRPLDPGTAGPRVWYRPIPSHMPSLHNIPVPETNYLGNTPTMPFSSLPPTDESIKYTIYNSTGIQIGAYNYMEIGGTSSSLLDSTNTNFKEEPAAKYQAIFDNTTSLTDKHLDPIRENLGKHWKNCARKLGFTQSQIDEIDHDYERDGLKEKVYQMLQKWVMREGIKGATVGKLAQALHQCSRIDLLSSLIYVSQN
# Protocol: The final reaction volume was 5.0 μl.
# Adding 5 μl of ADP-Glo™ terminated the reaction.
# murine RIP1 = target: T2, murine RIP1 (Mus musculus, UniProt Q60855); experiment: L929 cell necroptosis assay (TNFa + zVAD, CellTiter-Glo); format: cell-based
# T2 construct: U937 and L929 cells were obtained from the American Type Culture Collection; host or cells: L929
# T2 sequence (Q60855 1-656): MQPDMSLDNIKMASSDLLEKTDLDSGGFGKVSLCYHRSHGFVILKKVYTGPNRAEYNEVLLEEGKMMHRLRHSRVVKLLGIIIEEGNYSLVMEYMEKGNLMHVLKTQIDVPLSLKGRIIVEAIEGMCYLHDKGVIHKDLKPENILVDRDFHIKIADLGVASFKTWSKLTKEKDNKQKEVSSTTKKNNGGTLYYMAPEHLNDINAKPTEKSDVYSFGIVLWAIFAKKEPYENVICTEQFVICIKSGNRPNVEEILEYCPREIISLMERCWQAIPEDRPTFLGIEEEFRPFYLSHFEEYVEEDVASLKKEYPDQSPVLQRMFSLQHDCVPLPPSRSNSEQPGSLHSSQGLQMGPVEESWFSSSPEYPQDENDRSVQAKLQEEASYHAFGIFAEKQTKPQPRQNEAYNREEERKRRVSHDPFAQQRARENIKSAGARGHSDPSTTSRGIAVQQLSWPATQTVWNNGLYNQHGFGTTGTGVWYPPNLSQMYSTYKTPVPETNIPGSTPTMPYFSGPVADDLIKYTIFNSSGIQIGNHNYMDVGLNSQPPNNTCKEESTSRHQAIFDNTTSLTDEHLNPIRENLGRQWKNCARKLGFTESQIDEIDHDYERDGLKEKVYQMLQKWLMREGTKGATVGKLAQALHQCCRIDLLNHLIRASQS
# Protocol: (§1) In this example, U937 and L929 cells were exposed to compounds of the present disclosure and a cell necroptosis assay was conducted to evaluate the compounds' activity against human RIP1 and murine RIP1.
# (§2) U937 and L929 cells were obtained from the American Type Culture Collection (Manassa, Va., USA). Both cells were maintained in logarithmic growth phase in complete RPMI 1640 media (Sigma, ST Louis, Mo., USA) supplemented with 10% fetal bovine serum (Sigma, ST Louis, Mo., USA) at 37° C. with 5% CO2. For necroptosis assay, L929 cells were plated for 18 h in 100 µL/well medium at 10K cells/well in Costar 96-well black clear-bottom plates (Fisher Scientific, Hampton, N.H., USA); U937 cells were plated on the day of the assay in 50 µL/well medium containing 60 uM zVAD-fmk (Lonza, Basel, Switzerland) at 50K cells/well. Medium from L929 cells were removed from the 96-well plates and replaced with 50 µL/well new medium containing 40 uM zVAD-fmk. Each compound of the present disclosure evaluated in this example was serially diluted in DMSO from 2.5 mM in 4-fold dilutions, and then diluted 1:125 in complete medium. 50 µL/well 2× of the compound was then added to the cells in the plates. The cells were pre-incubated with the compound for 1 hour at 37° C. with 5% CO2 and before addition of 10 µL/well 11×TNFa (Peprotech, Rocky Hill, N.J., USA) to give a final concentration of 2 ng/mL for TNFa. The relative amount of necroptosis cells was determined by luminescent using a Wallac Victor2 Luminometer (PerkinElmer, Waltham, Mass., USA) and a CellTiter-Glo® Luminescent Cell Viability Reagent Assay (Promega, Madison, Wis., USA) added per manufacturer instructions after 18 hours of TNFa stimulation at 37° C. with 5% CO2.Results from this example are summarized in Table 2. This example establishes that embodiments of the compounds described herein have unexpectedly potent activity against human RIP1 and murine RIP1, which allows their assessment in in vivo mouse models of disease.
# human RIP1 = target: T3, human RIP1 (Homo sapiens, UniProt Q13546); experiment: U937 cell necroptosis assay (TNFa + zVAD, CellTiter-Glo); format: cell-based; settings: U937 Zvad TNF CTG Recovery, U937 cells, TNFa 2 ng/mL + zVAD-fmk, 18 hours
# T3 construct: U937 and L929 cells were obtained from the American Type Culture Collection; host or cells: U937
# T3 sequence (Q13546 1-671): T1 sequence (Q13546 1-671)
# Protocol: as §1, §2
IC50 (RIPK1),Structure (SMILES),IC50 (murine RIP1),IC50 (human RIP1)
30.7 nM,"CN1C(=O)C(NC(=O)c2ncn(Cc3c(Cl)cccc3Cl)n2)CCc2ccc(CN3CCN(c4ccncc4)CC3)cc21 (racemic) [Compound I-3, (±)-1-(2,6-Dichlorobenzyl)-N-(1-methyl-2-oxo-8-((4-(pyridin-4-yl)piperazin-1-yl)methyl)-2,3,4,5-tetrahydro-1H-benzo[b]azepin-3-yl)-1H-1,2,4-triazole-3-carboxamide]",2530 nM,5.8 nM
525 nM,"CN1C(=O)C(NC(=O)c2n[nH]c(Cc3ccccc3)n2)CCc2ccc(CN3CCN(c4ccncc4)CC3)cc21 (racemic) [Compound I-4, (±)-5-Benzyl-N-(1-methyl-2-oxo-8-((4-(pyridin-4-yl)piperazin-1-yl)methyl)-2,3,4,5-tetrahydro-1H-benzo[b]azepin-3-yl)-1H-1,2,4-triazole-3-carboxamide]",,53.9 nM
65.6 nM,"O=C(NC1CCc2ccc(CN3CCN(c4ccncc4)CC3)cc2NC1=O)c1ncn(Cc2c(Cl)cccc2Cl)n1 (racemic) [Compound I-5, (±)-1-(2,6-Dichlorobenzyl)-N-(2-oxo-8-((4-(pyridin-4-yl)piperazin-1-yl)methyl)-2,3,4,5-tetrahydro-1H-benzo[b]azepin-3-yl)-1H-1,2,4-triazole-3-carboxamide]",,16.4 nM
330 nM,"O=C(NC1CCc2ccc(CN3CCN(c4ccncc4)CC3)cc2NC1=O)c1n[nH]c(Cc2ccccc2)n1 (racemic) [Compound I-6, (±)-5-Benzyl-N-(2-oxo-8-((4-(pyridin-4-yl)piperazin-1-yl)methyl)-2,3,4,5-tetrahydro-1H-benzo[b]azepin-3-yl)-1H-1,2,4-triazole-3-carboxamide]",,1460 nM
806 nM,"O=C(NC1CCc2ccc(CN3CCN(c4ccncc4)CC3)cc2NC1=O)c1n[nH]c(Cc2ccccc2)n1 (racemic) [Compound I-7, (±)-5-Benzyl-N-(2-oxo-8-((4-(pyridin-4-yl)piperazin-1-yl)methyl)-2,3,4,5-tetrahydro-1H-benzo[b]azepin-3-yl)-1H-1,2,4-triazole-3-carboxamide]",,2650 nM
378 nM,"CN1C(=O)C(NC(=O)c2n[nH]c(Cc3ccccc3)n2)CCc2ccc(CN3CCn4ncnc4C3)cc21 (racemic) [Compound I-8, (±)-5-Benzyl-N-(8-((5,6-dihydro-[1,2,4]triazolo[1,5-a]pyrazin-7(8H)-yl)methyl)-1-methyl-2-oxo-2,3,4,5-tetrahydro-1H-benzo[b]azepin-3-yl)-1H-1,2,4-triazole-3-carboxamide]",5440 nM,9.3 nM
414 nM,"O=C(NC1CCc2ccc(N3CC4(CCOCC4)C3)cc2NC1=O)c1n[nH]c(Cc2ccccc2)n1 (racemic) [Compound I-9, (±)-5-Benzyl-N-(2-oxo-8-(7-oxa-2-azaspiro[3.5]nonan-2-yl)-2,3,4,5-tetrahydro-1H-benzo[b]azepin-3-yl)-1H-1,2,4-triazole-3-carboxamide]",30800 nM,13.1 nM
808 nM,"CN1C(=O)C(NC(=O)c2n[nH]c(Cc3ccccc3)n2)CCc2ccc(N3CCN4CCC3CC4)cc21 (racemic) [Compound I-11, (±)-N-(8-(1,4-Diazabicyclo[3.2.2]nonan-4-yl)-1-methyl-2-oxo-2,3,4,5-tetrahydro-1H-benzo[b]azepin-3-yl)-5-benzyl-1H-1,2,4-triazole-3-carboxamide]",,1080 nM
444 nM,"CN1C(=O)C(NC(=O)c2n[nH]c(Cc3ccccc3)n2)CCc2ccc(N3CC4(CCCCC4)C3)cc21 (racemic) [Compound I-12, (±)-5-Benzyl-N-(1-methyl-2-oxo-8-(2-azaspiro[3.5]nonan-2-yl)-2,3,4,5-tetrahydro-1H-benzo[b]azepin-3-yl)-1H-1,2,4-triazole-3-carboxamide]",43.2 nM,5.2 nM
373 nM,"CN1C(=O)C(NC(=O)c2n[nH]c(Cc3ccccc3)n2)CCc2ccc(N3CCC4(CCOCC4)CC3)cc21 (racemic) [Compound I-13, (±)-5-Benzyl-N-(1-methyl-2-oxo-8-(3-oxa-9-azaspiro[5.5]undecan-9-yl)-2,3,4,5-tetrahydro-1H-benzo[b]azepin-3-yl)-1H-1,2,4-triazole-3-carboxamide]",94.9 nM,2.1 nM
129 nM,"[2H]C([2H])([2H])N1C(=O)C(NC(=O)c2n[nH]c(Cc3ccccc3)n2)CCc2ccc(C#CC(C)(C)O)cc21 (racemic) [Compound I-14, (±)-5-Benzyl-N-(8-(3-hydroxy-3-methylbut-1-yn-1-yl)-1-(methyl-d)-2-oxo-2,3,4,5-tetrahydro-1H-benzo[b]azepin-3-yl)-1H-1,2,4-triazole-3-carboxamide]",43.3 nM,7.3 nM
106 nM,"[2H]C([2H])([2H])N1C(=O)C(NC(=O)c2n[nH]c(Cc3ccccc3)n2)CCc2ccc(N3CC4(CCOCC4)C3)cc21 (racemic) [Compound I-15, (±)-5-Benzyl-N-(1-(methyl-d3)-2-oxo-8-(7-oxa-2-azaspiro[3.5]nonan-2-yl)-2,3,4,5-tetrahydro-1H-benzo[b]azepin-3-yl)-1H-1,2,4-triazole-3-carboxamide]",257 nM,7.9 nM
661 nM,"O=C(NC1CCc2ccc(CN3CCN(c4ccncc4)CC3)cc2NC1=O)c1cc(Oc2ccccc2)ccn1 (racemic) [Compound I-26, (±)-N-(2-Oxo-8-((4-(pyridin-4-yl)piperazin-1-yl)methyl)-2,3,4,5-tetrahydro-1H-benzo[b]azepin-3-yl)-4-phenoxypicolinamide]",,3890 nM
4460 nM,"CN1C(=O)C(NC(=O)c2nccc(-c3ccccc3)n2)CCc2ccc(CN3CCN(c4ccncc4)CC3)cc21 (racemic) [Compound I-38, (±)-N-(1-Methyl-2-oxo-8-((4-(pyridin-4-yl)piperazin-1-yl)methyl)-2,3,4,5-tetrahydro-1H-benzo[b]azepin-3-yl)-4-phenylpyrimidine-2-carboxamide]",,6360 nM
,"CN1C(=O)C(NC(=O)c2nccc(-c3ccccc3)n2)CCc2ccc(CN3CCn4ncnc4C3)cc21 (racemic) [Compound I-39, (±)-N-(8-((5,6-dihydro-[1,2,4]triazolo[1,5-a]pyrazin-7(8H)-yl)methyl)-1-methyl-2-oxo-2,3,4,5-tetrahydro-1H-benzo[b]azepin-3-yl)-4-phenylpyrimidine-2-carboxamide]",,216 nM
